From patent publication US5480902A, “Thienylpyrrole fungicidal agents” (American Cyanamid Company, priority 1993, dated 1996) come the findings set out here.

A word on the inhibition: it is the percentage by which the read-out fell short of the control.

The test system of test [1] is Pythium ultimum. In words: In vitro fungicidal activity, growth inhibition of ground fungal mycelia (PYTHUL). Format: cell-based. The note with it: Globisporangium ultimum, 3-4 days at 21° C., averaged when more than one test, read-out: Growth inhibition rating, PYTHUL (converted). How it is done:
(§1) Test compounds are dissolved or suspended in acetone and dispersed into cell well plates containing a suspension of ground fungal mycelia in a nutrient broth. Assay plates are incubated for 3-4 days at 21° C. Growth inhibition is measured visually and is rated using the following scale:
(§2) Assay fungi include the plant pathogens, Pythium ultimum (Pythul); Rhizoctonia solani (Rhizso); Fusarium oxysporum f. sp. cucumerinum (Fusoxc); and Pseudocercosporella herpotrichoides (Psdche).
(§3) When more than one test is run, the data are averaged.

Test [2] relates to Puccinia recondita f. sp. tritici. Kind of test: In vivo fungicidal activity on host plants, Wheat Leaf Rust (WLR). The following applies: 400 ppm; sprayed on host plants before inoculation.
Test [3] relates to Plasmopara viticola. Kind of test: In vivo fungicidal activity on host plants, Grape Downy Mildew (GDM). The following applies: sprayed on host plants before inoculation.
Test [4] deals with Pyricularia oryzae. It is filed as in vivo. The following applies: sprayed on host plants before inoculation.
The subject of test [5] is Erysiphe graminis f. sp. tritici. In words: In vivo fungicidal activity on host plants, Wheat Powdery Mildew (WPM). The note with it: sprayed on host plants before inoculation.
Test [6] relates to Venturia inaegualis. Kind of test: In vivo fungicidal activity on host plants, Apple Scab (AS). The following applies: sprayed on host plants before inoculation.
Test [7] deals with Cercospora beticola. In words: In vivo fungicidal activity on host plants, Sugar Beet Cercospora (SBC). Also: ranges in brackets are in %. The note with it: sprayed on host plants before inoculation.
Test [8] concerns Pseudocercosporella herpotrichoides. In words: In vitro fungicidal activity, growth inhibition of ground fungal mycelia (PSDCHE). Format: cell-based. The note with it: Oculimacula yallundae, 3-4 days at 21° C., averaged when more than one test, read-out: Growth inhibition rating, PSDCHE (converted). How it is done: as §1, §2, §3
Test [9] deals with Rhizoctonia solani. In words: In vitro fungicidal activity, growth inhibition of ground fungal mycelia (RHIZSO). It is filed as cell-based. The note with it: 3-4 days at 21° C., averaged when more than one test, read-out: Growth inhibition rating, RHIZSO. How it is done: as §1, §2, §3
The test system of test [10] is Fusarium oxysporum f. sp. cucumerinum. In words: In vitro fungicidal activity, growth inhibition of ground fungal mycelia (FUSOXC). It is filed as cell-based. The note with it: read-out: Growth inhibition rating, FUSOXC. How it is done: as §1, §2, §3
The test system of test [11] is Botrytis cinerea. In words: In vivo fungicidal activity on host plants, Pepper Botrytis (PB). The following applies: sprayed on host plants before inoculation.
Setting [12] is: 25 ppm, 3-4 days at 21° C., averaged when more than one test.

Structures are written as SMILES. Where two headings read alike, the source gives them in different places.

For `N#Cc1cc(C(F)(F)F)[nH]c1-c1cccs1` [Compound 2, 2-(2-Thienyl)-5-(trifluoromethyl)pyrrole-3-carbonitrile], the inhibition at 25 ppm in test [1] was 100%. The “Disease control rating, WLR” value in test [2] was 9 (100). In addition, in test [3] (400 ppm), the “Disease control rating, GDM” value is 9 (100). Also, the “Disease control rating, RB” value in [4] (400 ppm) is reported as 5 (60-74). The “Disease control rating, WPM” value in test [5] (400 ppm) is 9 (100). In test [6] (400 ppm), the “Disease control rating, AS” value is given as 9 (100). The “Disease control rating, SBC” value in test [7] (400 ppm) is 0 (0).

For `N#Cc1c(-c2ccc(Br)s2)[nH]c(C(F)(F)F)c1Br` [Compound 3, 4-Bromo-2-(5-bromo-2-thienyl)-5-(trifluoromethyl)pyrrole-3-carbonitrile], the “Disease control rating, WLR” value in [2] was 9 (100). Further, the “Disease control rating, GDM” value in test [3] (400 ppm) is listed as 9 (100). In addition, the “Disease control rating, RB” value in test [4] (400 ppm) is given as 0 (0). Besides, the inhibition at 25 ppm in [8] is 30 to 59%. In [5] (400 ppm), the “Disease control rating, WPM” value was 7 (90-95). Further, the “Disease control rating, AS” value in test [6] (400 ppm) is 9 (100).

As for `O=[N+]([O-])c1ccc(-c2c(C(F)(F)F)[nH]c(-c3ccc(Cl)cc3)c2[N+](=O)[O-])s1` [Compound 5, 2-(p-Chlorophenyl)-3-nitro-4-(5-nitro-2-thienyl)-5-(trifluoromethyl)pyrrole], the inhibition at 25 ppm in test [9] was 90 to 99%; in test [8] it was 60 to 89%; in test [10], 30 to 59%. Besides, the “Disease control rating, WLR” value in [2] is recorded as 6 (75-89). Further, the “Disease control rating, GDM” value in test [3] (400 ppm) is given as 9 (100). Also, the “Disease control rating, RB” value in [4] (400 ppm) is reported as 0 (0). Also, in test [11] (400 ppm), the “Disease control rating, PB” value is given as 0 (0). For the same compound, in test [5] (400 ppm), the “Disease control rating, WPM” value was 0 (0). Moreover, in [6] (400 ppm), the “Disease control rating, AS” value was 4 (45-59).

Turning to `O=[N+]([O-])c1c(-c2ccc(Cl)cc2)[nH]c(C(F)(F)F)c1-c1csc(Br)c1` [Compound 8, 3-(5-Bromo-3-thienyl)-5-(p-chlorophenyl)-4-nitro-2-(trifluoromethyl)pyrrole], the inhibition at 25 ppm in test [1] was 0%; in [9], 30 to 59%; in [8], 0%; in test [10] (setting [12]), 0%. In addition, in [2], the “Disease control rating, WLR” value is recorded as 7 (90-95). In addition, the “Disease control rating, GDM” value in test [3] (400 ppm) is recorded as 9 (100). In addition, the “Disease control rating, RB” value in test [4] (400 ppm) is given as 4 (45-59). Besides, the “Disease control rating, PB” value in test [11] (400 ppm) is 0 (0). The “Disease control rating, WPM” value in [5] (400 ppm) is on record as 0 (0). In addition, the “Disease control rating, AS” value in test [6] (400 ppm) was 8 (96-99).

Take `O=[N+]([O-])c1c(-c2ccc(Cl)cc2)[nH]c(C(F)(F)F)c1-c1csc(Br)c1Br` [Compound 10, 2-(p-Chlorophenyl)-4-(4,5-dibromo-3-thienyl)-3-nitro-5-(trifluoromethyl)pyrrole]: the inhibition at 25 ppm in test [1] and in [8] was 0% in each case. The “Disease control rating, GDM” value in test [3] (400 ppm) is 7 (90-95). Further, the “Disease control rating, RB” value in [4] (400 ppm) is recorded as 7 (90-95). For the same compound, in test [11] (400 ppm), the “Disease control rating, PB” value was 0 (0). For the same compound, in test [5] (400 ppm), the “Disease control rating, WPM” value is 4 (45-59). Besides, the “Disease control rating, AS” value in test [6] (400 ppm) is given as 0 (0). In addition, in test [7] (400 ppm), the “Disease control rating, SBC” value is 0 (0).

On to `N#Cc1cc(C(F)(F)F)[nH]c1-c1ccco1` [Compound 11, 2-(2-Furyl)-5-(trifluoromethyl)pyrrole-3-carbonitrile], for which the inhibition at 25 ppm in test [1] is 90 to 99%; in test [8] it was 0%; in test [10] (setting [12]), 0%. The “Disease control rating, GDM” value in test [3] (200 ppm) was 0 (0). In addition, the “Disease control rating, RB” value in [4] (200 ppm) is 0 (0). Further, the “Disease control rating, PB” value in test [11] (200 ppm) is 0 (0). For the same compound, the “Disease control rating, AS” value in test [6] (200 ppm) was 0 (0). The “Disease control rating, SBC” value in test [7] (200 ppm) was 0 (0).

With `N#Cc1c(-c2cccs2)[nH]c(C(F)(F)F)c1Cl` [Compound 12, 4-Chloro-2-(2-thienyl)-5-(trifluoromethyl)pyrrole-3-carbonitrile], the inhibition at 25 ppm in test [1] is 90 to 99%; in test [9], 90 to 99%; in test [8], 0%; in test [10] (setting [12]), 0%. The “Disease control rating, GDM” value in [3] (200 ppm) is on record as 8 (96-99). In addition, the “Disease control rating, RB” value in test [4] (200 ppm) is 0 (0). In [11] (200 ppm), the “Disease control rating, PB” value is 0 (0). The “Disease control rating, WPM” value in test [5] (200 ppm) is 8 (96-99). The “Disease control rating, AS” value in test [6] (200 ppm) was 4 (45-59). Besides, the “Disease control rating, SBC” value in test [7] (200 ppm) is reported as 0 (0).

With `CCOCn1c(-c2ccc(Br)s2)c(C#N)c(Br)c1C(F)(F)F` [Compound 13, 4-Bromo-2-(5-bromo-2-thienyl)-1-(ethoxymethyl)-5-(trifluoromethyl)pyrrole-3-carbonitrile], the inhibition at 25 ppm is 0% in [1], 30 to 59% in test [9], 0% in test [8] and 0% in test [10] (setting [12]). Moreover, in test [3] (200 ppm), the “Disease control rating, GDM” value is 0 (0). Further, the “Disease control rating, RB” value in [4] (200 ppm) was 0 (0). For the same compound, the “Disease control rating, PB” value in [11] (200 ppm) was 0 (0). Also, the “Disease control rating, WPM” value in test [5] (200 ppm) is listed as 9 (100). Further, the “Disease control rating, AS” value in [6] (200 ppm) is 0 (0). Besides, in test [7] (200 ppm), the “Disease control rating, SBC” value is 0 (0).

Consider `N#Cc1cc(C(F)(F)F)[nH]c1-c1ccc(Br)o1` [Compound 14, 2-(5-Bromo-2-furyl)-5-(trifluoromethyl)pyrrole-3-carbonitrile], for which the inhibition at 25 ppm in test [9] was 30 to 59%; in test [8] it was 0%; in test [10] (setting [12]), 0%. The “Disease control rating, GDM” value in test [3] (200 ppm) is 6 (75-89). Moreover, in [4] (200 ppm), the “Disease control rating, RB” value is listed as 0 (0). The “Disease control rating, PB” value in test [11] (200 ppm) is recorded as 0 (0). Besides, the “Disease control rating, WPM” value in [5] (200 ppm) is recorded as 6 (75-89). For the same compound, the “Disease control rating, AS” value in test [6] (200 ppm) is on record as 0 (0). Besides, the “Disease control rating, SBC” value in test [7] (200 ppm) is reported as 0 (0).

Turning to `N#Cc1cc(C(F)(F)F)[nH]c1-c1ccc(Br)s1` [Compound 15, 2-(5-Bromo-2-thienyl)-5-(trifluoromethyl)pyrrole-3-carbonitrile], the inhibition at 25 ppm was 0% in [1], 60 to 89% in test [9], 0% in test [8] and 0% in test [10] (setting [12]).

Take `N#Cc1cc(C(F)(F)F)[nH]c1-c1ccc(Cl)s1` [Compound 16, 2-(5-Chloro-2-thienyl)-5-(trifluoromethyl)pyrrole-3-carbonitrile]: the inhibition at 25 ppm in test [1] is 0%; in [9], 60 to 89%; in test [8] it was 0%; in test [10] (setting [12]), 0%.

Consider `N#Cc1c(-c2ccc(Cl)s2)[nH]c(C(F)(F)F)c1Br` [Compound 17, 4-Bromo-2-(5-chloro-2-thienyl)-5-(trifluoromethyl)pyrrole-3-carbonitrile], for which the inhibition at 25 ppm in test [1] is 30 to 59%; in test [9], 60 to 89%; in test [8], 0%; in test [10] (setting [12]) it was 0%.

Regarding `CCOCn1c(-c2ccc(Cl)s2)c(C#N)c(Br)c1C(F)(F)F` [Compound 18, 4-Bromo-2-(5-chloro-2-thienyl)-1-(ethoxymethyl)-5-(trifluoromethyl)pyrrole-3-carbonitrile], the inhibition at 25 ppm in [1] was 0%; in test [9], 30 to 59%; in test [8] it was 0%; in test [10] (setting [12]) it was 0%.

Turning to `N#Cc1c(-c2ccc(Br)o2)[nH]c(C(F)(F)F)c1Br` [Compound 19, 4-Bromo-2-(5-bromo-2-furyl)-5-(trifluoromethyl)pyrrole-3-carbonitrile], the inhibition at 25 ppm in [1], in test [9], in test [8] and in test [10] (setting [12]) was 0% throughout.

Take `N#Cc1cc(C(F)(F)F)[nH]c1-c1cc(Br)cs1` [Compound 20, 2-(4-Bromo-2-thienyl)-5-(trifluoromethyl)pyrrole-3-carbonitrile]: the inhibition at 25 ppm in [1], in test [9], in test [8] and in [10] (setting [12]) was 0% throughout.

For `N#Cc1c(-c2cc(Br)c(Br)s2)[nH]c(C(F)(F)F)c1Br` [Compound 21, 4-Bromo-2-(4,5-dibromo-2-thienyl)-5-(trifluoromethyl)pyrrole-3-carbonitrile], the inhibition at 25 ppm in [1], in test [9], in test [8] and in test [10] (setting [12]) was 0% throughout.

For `CCOCn1c(-c2ccc(Br)o2)c(C#N)c(Br)c1C(F)(F)F` [Compound 22, 4-Bromo-2-(5-bromo-2-furyl)-1-(ethoxymethyl)-5-(trifluoromethyl)pyrrole-3-carbonitrile], the inhibition at 25 ppm in test [1], in test [9], in [8] and in [10] (setting [12]) was 0% throughout.
